Paper PMC4851326, “Pharmacologic Comparison of Clinical Neutral Endopeptidase Inhibitors in a Rat Model of Acute Secretory Diarrhea” (The Journal of Pharmacology and Experimental Therapeutics, 2016)

Legend:
[1] = biological target: T1, ACE (Homo sapiens, UniProt P12821); test: Purified peptidase assay, ACE; type: biochemical; conditions: recombinant purified human enzyme; for prodrugs the active form was tested
T1 construct: purchased R&D Systems (Minneapolis, MN)
Protocol: (§1) Purified recombinant human enzymes were purchased from R&D Systems (Minneapolis, MN). […] Each substrate was diluted to 100 μM in the assay buffer recommended for each enzyme by the supplier. […] To these, 5 μl of diluted enzyme was added, followed by 10 μl of the quenched peptide substrate. The plates were incubated at 37°C until at least 10% substrate turnover or 5 μM product had formed. Fluorescence was measured using a Tecan Safire II (Excitation 320 nm/Emission 420 nm). Each plate included a standard curve of reaction product and positive (no enzyme) and negative (dimethyl sulfoxide vehicle) controls. Dose-response data were plotted and inhibition values (IC50) determined by linear regression analysis using GraphPad Prism (GraphPad Software, La Jolla, CA).

[2] = test system: castor oil–induced diarrhea; test: Castor oil–induced diarrhea model; type: in vivo, rat; conditions: single oral dose 30 minutes before castor oil, fasted rats, vs vehicle (Fig. 1)
Protocol: Experiments were performed with 6-to-7-week-old male Wistar rats obtained from Charles River Laboratories (Wilmington, MA). All animals were housed in Saint Louis University facilities under controlled conditions of temperature, humidity, and a 12-hour light/dark cycle. They were maintained on standard rodent chow with free access to water. Animal care and all procedures were performed in accordance with the National Institutes of Health Guide for the Care and Use of Laboratory Animals and approved by the university’s institutional animal care and use committee.
Animals were weighed and individually housed in metabolic cages containing white paper underneath to collect feces. Test compounds or vehicles were administered by oral gavage (5 ml/kg), and then at indicated times, 10 ml/kg body weight of 100% castor oil was administered by oral gavage to induce diarrhea. Animals had access to food within 5 minutes. Stool weight was recorded starting 15 minutes after castor oil administration and repeated every 15 minutes up to 4 hours. […] After 4 hours, animals were euthanized with CO2, and blood and tissues were collected for analyses.

[3] = biological target: T2, NEP (Homo sapiens, UniProt P08473); test: Purified peptidase assay, NEP; type: biochemical; conditions: recombinant purified human enzyme; for prodrugs the active form was tested
T2 construct: purchased R&D Systems (Minneapolis, MN)
T2 sequence (P08473 whole entry): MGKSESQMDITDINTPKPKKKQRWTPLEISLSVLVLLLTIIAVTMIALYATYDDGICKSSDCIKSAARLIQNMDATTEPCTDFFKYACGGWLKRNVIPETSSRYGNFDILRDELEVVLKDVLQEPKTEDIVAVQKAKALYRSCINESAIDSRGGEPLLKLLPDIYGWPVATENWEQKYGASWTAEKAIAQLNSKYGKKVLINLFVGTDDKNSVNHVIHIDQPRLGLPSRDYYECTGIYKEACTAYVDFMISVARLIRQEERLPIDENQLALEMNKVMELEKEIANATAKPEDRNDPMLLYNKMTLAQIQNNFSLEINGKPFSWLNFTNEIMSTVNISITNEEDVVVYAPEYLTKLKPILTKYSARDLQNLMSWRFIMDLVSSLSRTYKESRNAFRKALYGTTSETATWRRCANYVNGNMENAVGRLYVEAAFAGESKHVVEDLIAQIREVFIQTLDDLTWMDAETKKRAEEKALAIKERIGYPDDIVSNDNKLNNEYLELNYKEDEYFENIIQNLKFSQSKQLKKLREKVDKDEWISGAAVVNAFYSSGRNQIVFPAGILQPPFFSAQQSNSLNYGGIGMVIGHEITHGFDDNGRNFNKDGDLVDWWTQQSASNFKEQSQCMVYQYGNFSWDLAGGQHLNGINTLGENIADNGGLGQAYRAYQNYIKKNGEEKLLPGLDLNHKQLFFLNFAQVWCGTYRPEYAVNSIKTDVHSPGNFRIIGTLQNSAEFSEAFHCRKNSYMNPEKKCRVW
Protocol: as §1

[4] = biological target: T3, NEP (Rattus norvegicus, UniProt P07861); test: NEP enzyme activity in tissues after oral treatment; type: in vivo; conditions: 5 hours postdose, single oral dose, rats
T3 construct: NEP enzyme activity was measured in tissue homogenates; from tissue; host or cells: Wistar rat kidney, lung, duodenum, jejunum homogenates
T3 sequence (P07861 1-750): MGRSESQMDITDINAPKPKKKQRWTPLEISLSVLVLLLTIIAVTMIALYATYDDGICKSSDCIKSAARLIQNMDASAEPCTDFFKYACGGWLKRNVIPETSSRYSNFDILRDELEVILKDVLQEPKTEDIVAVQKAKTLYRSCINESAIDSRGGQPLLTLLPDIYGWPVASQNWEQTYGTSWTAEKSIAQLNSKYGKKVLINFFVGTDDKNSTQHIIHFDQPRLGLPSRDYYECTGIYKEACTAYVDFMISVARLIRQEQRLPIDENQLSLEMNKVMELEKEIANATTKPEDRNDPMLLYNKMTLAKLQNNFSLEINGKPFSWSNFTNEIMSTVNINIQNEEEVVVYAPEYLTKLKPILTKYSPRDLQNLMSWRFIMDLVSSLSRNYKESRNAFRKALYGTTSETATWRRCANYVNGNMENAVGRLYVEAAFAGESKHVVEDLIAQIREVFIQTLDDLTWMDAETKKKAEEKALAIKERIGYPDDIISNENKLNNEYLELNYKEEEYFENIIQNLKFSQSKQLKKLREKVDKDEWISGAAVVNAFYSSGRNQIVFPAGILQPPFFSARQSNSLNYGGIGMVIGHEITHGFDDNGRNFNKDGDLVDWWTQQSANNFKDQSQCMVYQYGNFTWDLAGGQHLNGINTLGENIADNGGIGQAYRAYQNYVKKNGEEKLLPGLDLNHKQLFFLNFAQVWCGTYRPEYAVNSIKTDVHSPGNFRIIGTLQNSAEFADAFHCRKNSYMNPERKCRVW
Protocol: Four or five 2-mm Zirconia beads (Biospec, Bartlesville, OK) were added to fresh weighed tissue specimens (50–250 mg). Assay buffer consisting of 50 mM Tris-HCl (pH 7.4), 200 mM NaCl, and 0.05% TritonX-100 was added (4 μl/mg), and the sample was homogenized for 1 minute using a bead beater (Biospec). Stored frozen homogenates were thawed at room temperature and centrifuged 10 minutes at 18,000g, and the protein concentration was determined for each supernatant. […] NEP substrate 2Abz-dArg-Gly-Leu-C2-Dnp (American Peptide, Sunnyvale, CA) was prepared at 1 mM in 20% acetonitrile/water and diluted to 100 μM in assay buffer, and 10 μl was dispensed to homogenate-containing wells. […] Kinetic data were plotted to determine the rate of product formation by linear regression with interpolation against a standard curve, and the rate was normalized to protein concentration.

T1 sequence (P12821 30-1306): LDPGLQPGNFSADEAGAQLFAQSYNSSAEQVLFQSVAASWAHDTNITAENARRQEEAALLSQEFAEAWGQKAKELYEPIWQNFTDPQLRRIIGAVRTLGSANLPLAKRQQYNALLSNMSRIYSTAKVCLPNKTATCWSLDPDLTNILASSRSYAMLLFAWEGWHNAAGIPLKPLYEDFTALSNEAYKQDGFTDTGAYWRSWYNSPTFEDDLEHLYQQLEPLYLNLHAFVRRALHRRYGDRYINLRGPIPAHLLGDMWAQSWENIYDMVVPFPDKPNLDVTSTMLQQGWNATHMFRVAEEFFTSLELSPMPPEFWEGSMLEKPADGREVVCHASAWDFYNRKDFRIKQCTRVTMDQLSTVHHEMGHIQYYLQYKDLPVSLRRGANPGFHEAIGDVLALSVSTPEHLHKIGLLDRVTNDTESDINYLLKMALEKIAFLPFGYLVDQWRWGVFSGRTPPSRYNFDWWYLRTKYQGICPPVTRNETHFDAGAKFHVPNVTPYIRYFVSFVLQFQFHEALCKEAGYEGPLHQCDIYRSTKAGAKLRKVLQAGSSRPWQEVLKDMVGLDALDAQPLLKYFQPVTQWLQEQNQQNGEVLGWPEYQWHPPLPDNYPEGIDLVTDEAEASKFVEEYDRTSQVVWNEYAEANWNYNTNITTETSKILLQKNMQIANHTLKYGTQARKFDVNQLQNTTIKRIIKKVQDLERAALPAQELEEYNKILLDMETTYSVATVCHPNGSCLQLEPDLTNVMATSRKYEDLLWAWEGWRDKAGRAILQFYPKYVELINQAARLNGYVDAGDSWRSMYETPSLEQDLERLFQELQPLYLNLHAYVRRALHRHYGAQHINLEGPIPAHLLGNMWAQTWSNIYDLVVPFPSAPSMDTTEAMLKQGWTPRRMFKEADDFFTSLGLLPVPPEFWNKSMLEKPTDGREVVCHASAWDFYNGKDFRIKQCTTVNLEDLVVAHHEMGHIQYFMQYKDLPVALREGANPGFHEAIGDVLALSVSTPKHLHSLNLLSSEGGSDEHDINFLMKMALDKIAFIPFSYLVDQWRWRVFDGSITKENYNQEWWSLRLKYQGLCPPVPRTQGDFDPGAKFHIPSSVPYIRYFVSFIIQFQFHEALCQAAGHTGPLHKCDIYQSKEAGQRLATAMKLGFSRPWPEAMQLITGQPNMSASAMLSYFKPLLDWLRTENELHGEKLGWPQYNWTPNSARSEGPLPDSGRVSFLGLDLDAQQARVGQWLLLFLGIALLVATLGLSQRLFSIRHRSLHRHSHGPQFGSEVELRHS

In the case of `Cc1nc2ccc(CCCNC(=O)C3(C[C@@H](C)C(=O)O)CCCC3)cc2s1` [UK-505,749, (R)-2-methyl-3-(1-((3-(2-methylbenzo[d]thiazol-6-yl)propyl)carbamoyl)cyclopentyl)propanoic acid], the IC50 [1] is reported as over 100000 nM, the “Cumulative stool output over 4 hours” value [2] is reported as “significantly reduced” and the IC50 [3] is reported as 4 nM. The “Inhibition of NEP in the intestinal segments” value [4] was over 92% and the “Inhibition of NEP in the intestinal segments” value ([4]; listed as UK-505,797) was at least 97%.
